Values after ≈ are worked out from the molar mass of the structure shown. Active and inactive are the calls of the source. The rule behind the calls is not given here.
How the values were obtained:
Escherichia coli = experiment: Antimicrobial activity against Escherichia coli DSM 1103 after 18 hrs by twofold serial dilution method; format: functional, organism-based
Bacillus subtilis = experiment: Antimicrobial activity against Bacillus subtilis DSM 347 after 18 hrs by twofold serial dilution method; format: functional
Candida albicans = experiment: Antimicrobial activity against Candida albicans DSM 1665 after 18 hrs by twofold serial dilution method; format: functional
Gambusia affinis = experiment: Toxicity against Gambusia affinis; settings: in vivo
Micrococcus luteus = experiment: Antimicrobial activity against Micrococcus luteus DSM 348 after 18 hrs by twofold serial dilution method; format: functional
Artemia salina = experiment: Toxicity against Artemia salina after 24 hrs; settings: in vivo
Pseudomonas aeruginosa = experiment: Antimicrobial activity against Pseudomonas aeruginosa DSM 1117 after 18 hrs by twofold serial dilution method; format: functional, organism-based

Row | Molecule | Activity (Escherichia coli) | MIC (Bacillus subtilis; DSM 347, 18 h) [µg/mL] | MIC (Candida albicans; DSM 1665, 18 h) [µg/mL] | LC50 (Gambusia affinis) [ppm] | MIC (Micrococcus luteus; DSM 348, 18 h) [µg/mL] | LC50 (Artemia salina) [ppm] | Activity (Pseudomonas aeruginosa) | MIC (Candida albicans) | MIC (Bacillus subtilis) | MIC (Micrococcus luteus)
1 | CC(C)=CCC/C(C)=C/CC1=CC(=O)C=CC1=O | inactive | 12.5 (≈ 51.2 µM) | 25 (≈ 102 µM) | 0.2 | 12.5 (≈ 51.2 µM) | 0.05 | inactive |  |  | 
2 | Clc1ccc(COC(Cn2ccnc2)c2ccc(Cl)cc2Cl)c(Cl)c1 (stereo not given) [MICONAZOLE] | inactive |  | 1.56 (≈ 3.75 µM) |  |  |  | inactive |  |  | 
3 | CC(C)=CCC/C(C)=C/CC/C(C)=C/Cc1cc(O)ccc1O | inactive | 1.56 (≈ 4.96 µM) |  | 3.3 | 12.5 (≈ 39.7 µM) | 0.05 | inactive | inactive |  | 
4 | CC(C)=CCC/C(C)=C/CC/C(C)=C/CC/C(C)=C/CC/C(C)=C/CC/C(C)=C/CC/C(C)=C/CC/C(C)=C/Cc1cc(O)ccc1O | inactive |  |  | > 100 |  | 0.98 | inactive | inactive | inactive | inactive
5 | CC(C)=CCC/C(C)=C/CC/C(C)=C/CC/C(C)=C/CC/C(C)=C/CC/C(C)=C/CC/C(C)=C/Cc1cc(O)ccc1O | inactive |  |  | > 100 |  | 0.91 | inactive | inactive | inactive | inactive
6 | CC1=CCC[C@H]2[C@](C)(Cc3cc(O)ccc3O)[C@@H](C)CC[C@]12C [AVAROL] | inactive | > 50 |  | 4.6 | > 50 | 0.18 | inactive | inactive |  | 
7 | CC1=CC(=O)C=CC1=O [Cresoquinone] | inactive | 25 (≈ 205 µM) | > 50 | 5.4 | > 50 | 1.06 | inactive |  |  | 
8 | GENTAMICIN | inactive |  |  |  |  |  | inactive |  | 0.78 µg/mL | 1.56 µg/mL
9 | CC(C)=CCC/C(C)=C/CC/C(C)=C/CC/C(C)=C/CC/C(C)=C/CC/C(C)=C/Cc1cc(O)ccc1O | inactive |  |  | > 100 |  | 0.63 | inactive | inactive | inactive | inactive
10 | CC(C)CCc1cc(O)ccc1O | inactive | 12.5 (≈ 69.3 µM) | > 50 | 3.3 | 6.25 (≈ 34.7 µM) | 0.29 | inactive |  |  | 
11 | C=C(C)[C@H]1Cc2c(ccc3c2O[C@@H]2COc4cc(OC)c(OC)cc4[C@@H]2C3=O)O1 [ROTENONE] | inactive |  |  | 0.03 |  |  | inactive |  |  | 
12 | Oc1ccc(O)cc1 [HYDROQUINONE] | inactive | > 50 |  | 21.5 | > 50 | 0.35 | inactive | inactive |  | 
13 | CC(C)CCCC(C)CCc1cc(O)ccc1O (stereo not given) | inactive | 6.25 (≈ 25 µM) |  | 0.15 | 6.25 (≈ 25 µM) | 0.001 | inactive | inactive |  | 
